The subject of one data set is S. cerevisiae. The experiment in a line: Toxicity of organic phase (overlay/underlay) compounds to growth of the host strain. As to conditions: for toxicity to growth: compound as organic phase. The text has this: In-situ liquid-liquid extraction (biphasic fermentation) is a strategy that can be employed in accordance with the present invention for physical separation of product from microorganisms via partitioning into the water immiscible organic liquid phase from an aqueous culture phase. The organic liquid phase or organic phase is present as either an overlay if its density is less than that of the aqueous phase, or an underlay if its density is greater than that of the aqueous phase. Certain properties of the overlay or underlay are considered for production of olivetolic acid/olivetol and other resorcinols such as of formulas IA and IB: (1) non-toxic or low toxicity for growth of the host strain, and/or (2) a favorable partitioning coefficient of the product in the organic phase vs. the aqueous phase, and/or (3) preferably a lower partition coefficient for fed hexanoic acid (for olivetolic acid/olivetol) or other fatty acid such as RCO2H (for other resorcinols) in the organic phase vs. the aqueous phase. Additional properties of the organic phase enhance its suitability for downstream conversion, e.g. and without limitation, to cannabigerol and other cannabinoid compounds, including suitability as a solvent or co-solvent during downstream prenylation or other reactions, and boiling point if downstream separation by distillation is employed.

For a further data set, the system named is hexanoic acid. The experiment in a line: Two plasmid screening system for relative AAE activity, hexanoic acid feeding. Type of data set: cell-based, Saccharomyces cerevisiae. As to conditions: for Olivetol / Olivetolic acid: average production, LSC3-297/pLOA-049 plus AAE plasmid, Delft medium pH 6.5, 3.44 mM hexanoic acid, 48 hours. The text has this:
(§1) In order to perform in vivo screening in Saccharomyces cerevisiae for acyl activating enzyme (AAE) variants with enhanced activity and/or expression, a two plasmid screening system was employed to generate an artificial bottleneck in AAE activity. This bottleneck was generated by natural copy number variation of the two plasmids, with a multi-copy 2 micron episomal plasmid, pLOA-049, harboring an olivetol synthase homologue from C. sativa (CsTKS) fused with a T2A self-cleaving peptide (Kearsey et al., FEBS J. 287:1511-1524, 2020) to a gene encoding olivetol acid cyclase from C. sativa (CsOAC), and a lower copy centromeric plasmid with an autonomous replicating sequence (CEN/ARS) harboring different acyl activating enzymes/acyl-CoA synthetases from different organisms. Markers employed on the 2 micron plasmid were orotidine-5′-phosphate decarboxylase from S. cerevisiae (URA3) and on the CEN/ARS plasmid, the multifunctional histidine biosynthesis gene HIS4 from S. cerevisiae. The cassette architecture in the plasmids was based on integrated cassettes in production strain LSC3-2, with a pGAL1-10 bidirectional promoter driving expression of CsTKS and CsOAC from pGAL1 with a S. cerevisiae CYC1 terminator, and insulated downstream of pGAL10 by a S. cerevisiae GRE3 terminator. Likewise on the CEN/ARS plasmid, a bidirectional pGAL1-10 promoter drives expression of CsAAE1 from pGAL10 with a S. cerevisiae GRE3 terminator, and is insulated downstream of pGAL1 by a S. cerevisiae CYC1 terminator.
(§2) To screen activity of AAE variants, first a CEN/ARS containing plasmid expressing AAEs co-transformed with the 2 micron plasmid expressing CsTKS translationally fused to CsOAC via the T2A self-cleaving peptide into strain LSC3-297 using the transformation method described by Gietz and Schiestl (Nat. Protocols 2:31-34, 2007). Double plasmid transformants were selected on YNB agar with 2% (w/v) glucose and CSM minus histidine and minus uracil (CSM-His-Ura, Sunrise Science Products) and grown in a 30° C. incubator for approximately 48 hours or at room temperature for approximately 72 hours. Individual colonies were picked into wells of 96 deepwell plates containing 0.3 mL per well of Delft medium with 2% (w/v) glucose and 0.75 g/L CSM-His-Ura. Delft medium base contains (per liter solution) 7.5 g ammonium sulfate, 14.4 g potassium phosphate monobasic (added from a 1 M stock solution adjusted to pH 6.5 with sodium hydroxide), 0.5 g magnesium sulfate heptahydrate, 3.6 mL of a trace metal solution (consisting of 130 g/L citric acid monohydrate, 0.574 g/L copper (II) sulfate pentahydrate, 8.07 g/L iron (III) chloride hexahydrate, 0.5 g/L boric acid, 0.333 g/L manganese (II) chloride, 0.2 g/L sodium molybdate, and 4.67 g/L zinc sulfate heptahydrate), and 1.0 ml of a vitamin solution (0.008 g/L biotin, 1.6 g/L calcium pantothenate, 0.008 g/L folic acid, 8 g/L myo-inositol, 1.6 g/L nicotinic acid, 0.8 g/L p-aminobenzoic acid, 1.6 g/L pyridoxal hydrochloride, 0.8 g/L riboflavin, 1.6 g/L thiamine hydrochloride, adjusted to pH […] with sodium hydroxide). Plates were grown for 16-24 hours at 30° C. in a plate shaker incubator maintained at 80% relative humidity and 900 rpm shaking (3 mm diameter throw). Ten microliters of preculture was then used to inoculate wells of 96 deepwell plates containing 0.3 mL per well of Delft medium with 2% (w/v) glucose, 0.75 g/L CSM-His-Ura, either 9.08 mM butyric acid or 3.44 mM hexanoic acid, and for divarin/divarinic acid, additionally 150 mM 2-(N-morpholino) ethanesulfonic acid (MES) at pH 5.5 and with the additional modification of the 1 M potassium phosphate monobasic stock in the Delft medium base also adjusted to pH 5.5 (for olivetol/olivetolic acid production from hexanoic acid, no MES was added and potassium phosphate monobasic solution used in the Delft medium base was at pH 6.5). […]

Another data set relates to butyric acid. Description: Two plasmid screening system for relative AAE activity, butyric acid feeding. Type of data set: cell-based, Saccharomyces cerevisiae. The following applies: for Divarin / Divarinic acid: average production, LSC3-297/pLOA-049 plus AAE plasmid, Delft medium pH 5.5 with 150 mM MES, 9.08 mM butyric acid, 48 hours.
Excerpt: as §1, §2

For `CCCCCCCCCCCC(=O)OCCCC` [butyl laurate], the toxicity to growth result in the data set with S. cerevisiae (under the test conditions) is listed as “non-toxic”.
On to `CCCCCCCCCC(=O)OCC` [ethyl decanoate], for which, in the data set with S. cerevisiae (under the test conditions), the toxicity to growth result is listed as “increasingly non-toxic”.
On the same count and under the same terms, the same measure for `CCCCCCCCOC(C)=O` [octyl acetate]: “toxic”.
Take `CC(C)(C)OC(=O)CC(=O)OC(C)(C)C` [di-tert-butyl malonate]: in the data set on S. cerevisiae (1-10% (v/v), particularly 1-2.5% (v/v), in IPM and isopar M), the “toxicity toward growth of mixtures” value is recorded as “much lower toxicity”. In addition, the toxicity to growth entry in the data set with S. cerevisiae (with galactose addition) was “appearing toxic or to induce substantial lag”; with S. cerevisiae (with glucose addition), “supported growth of all strains”.
Take `CCCCCCCCCCCC` [dodecane]: the toxicity to growth result in the data set with S. cerevisiae (under the test conditions) was “Lack of toxicity”.
As for `CCCCCCCCCCCCCC(=O)OCC` [ethyl myristate], the toxicity to growth entry in the data set on S. cerevisiae (under the test conditions) is on record as “non-toxic”.
Consider “2,2,4-trimethyl-1,3-pentanediol monoisobutyrate [Texanol]”, for which the toxicity to growth result in the data set with S. cerevisiae (under the test conditions) is “inhibitory to growth”.
On the same count and under the same terms, then `CCCCCCCCCCCCCC` [tetradecane], with “Lack of toxicity”.
Same read-out and setting: then `CCCCCCCCCCCCCC(=O)OC` [methyl myristate], with “non-toxic”.
Regarding `CCCCCCCC(=O)OCC(COC(=O)CCCCCCC)OC(=O)CCCCCCC` [Tricaprylin], in the data set on S. cerevisiae (under the test conditions), the toxicity to growth entry was “fairly toxic, however allowed some growth of strains”.
Regarding `CCCCOC(=O)CCCCCCCCC(=O)OCCCC` [Dibutyl sebacate], the toxicity to growth entry in the data set with S. cerevisiae (under the test conditions) is “completely non-inhibitory to growth”.
With `CCCCCCCCCC(=O)OC` [methyl decanoate], in the data set with S. cerevisiae (under the test conditions), the toxicity to growth entry was “moderately inhibitory to growth but still allowed for growth”.
Consider `CCCCCCCC(=O)OC(C)C` [Isopropyl octanoate], for which the toxicity to growth entry in the data set on S. cerevisiae (under the test conditions) was “moderately inhibitory but allowed for some growth”.
Regarding `CCCCCCCCCCCCCCCC` [hexadecane], the toxicity to growth result in the data set with S. cerevisiae (under the test conditions) was “Lack of toxicity”.
Same read-out and setting: then `CCCCCCCC/C=C\CCCCCCCCO` [oleyl alcohol], with “supported robust growth”; and `CC(C)OC(=O)CCCCC(=O)OC(C)C` [diisopropyl adipate], with “Growth was observed”; and `CCCCCCCCCCO` [Decanol], with “toxic to growth”.
`CCCCCCCCCCCCCC(=O)OC(C)C` [IPM, isopropyl myristate]: the toxicity to growth result in the data set on S. cerevisiae (under the test conditions) was “non-toxic”.
As to `CCCCCCCCCCCC(=O)OCC` [ethyl laurate], in the data set with S. cerevisiae (under the test conditions), the toxicity to growth result is “non-toxic”.
Same read-out and setting: then `CCCCOC(=O)CCCCC(=O)OCCCC` [dibutyl adipate], with “no apparent toxicity”; and `CCCCCCOC(=O)CCCCC` [hexyl hexanoate], with “moderately non-toxic”.
Regarding `CCOC(=O)CCCCCCCCC(=O)OCC` [diethyl sebacate], the toxicity to growth result with S. cerevisiae (under the test conditions) is “moderately growth inhibitory”; in the data set with S. cerevisiae (with galactose addition) it was “substantial lag”; in the data set on S. cerevisiae (with glucose addition), “modest growth by most strains”.
Turning to `CCOC(=O)C(CC)(CC)C(=O)OCC` [diethyl diethylmalonate], the results for the toxicity to growth entry in the data set with S. cerevisiae (with galactose addition) and in the data set with S. cerevisiae (with glucose addition) were “substantial lag” and “modest growth by most strains”, respectively.

B1: CsAAE1: Cannabis sativa acyl activating enzyme 1 (SEQ ID NO: 4), codon-optimized for S. cerevisiae, on plasmid pLOA-059 (protein, listed as Cannabis sativa)
chain: MGKNYKSLDSVVASDFIALGITSEVAETLHGRLAEIVCNYGAATPQTWINIANHILSPDLPFSLHQMLFYGCYKDFGPAPPAWIPDPEKVKSTNLGALLEKRGKEFLGVKYKDPISSFSHFQEFSVRNPEVYWRTVLMDEMKISFSKDPECILRRDDINNPGGSEWLPGGYLNSAKNCLNVNSNKKLNDTMIVWRDEGNDDLPLNKLTLDQLRKRVWLVGYALEEMGLEKGCAIAIDMPMHVDAVVIYLAIVLAGYVVVSIADSFSAPEISTRLRLSKAKAIFTQDHIIRGKKRIPLYSRVVEAKSPMAIVIPCSGSNIGAELRDGDISWDYFLERAKEFKNCEFTAREQPVDAYTNILFSSGTTGEPKAIPWTQATPLKAAADGWSHLDIRKGDVIVWPTNLGWMMGPWLVYASLLNGASIALYNGSPLVSGFAKFVQDAKVTMLGVVPSIVRSWKSTNCVSGYDWSTIRCFSSSGEASNVDEYLWLMGRANYKPVIEMCGGTEIGGAFSAGSFLQAQSLSSFSSQCMGCTLYILDKNGYPMPKNKPGIGELALGPVMFGASKTLLNGNHHDVYFKGMPTLNGEVLRRHGDIFELTSNGYYHAHGRADDTMNIGGIKISSIEIERVCNEVDDRVFETTAIGVPPLGGGPEQLVIFFVLKDSNDTTIDLNQLRLSFNLGLQKKLNPLFKVTRVVPLSSLPRTATNKIMRRVLRQQFSHFE
In the case of B1, in the data set on hexanoic acid, the Olivetol is 2.61 mg/L and the Olivetolic acid turned out to be 2.99 mg/L. In addition, the “activity as a hexanoyl-CoA synthetase for olivetol and olivetolic acid production” value in the data set with hexanoic acid (out of the tested AAE sequences) was “highest activity”. For the same molecule, in the data set on butyric acid, the Divarin turned out to be 1.58 mg/L and the Divarinic acid amounted to 1.51 mg/L.

B2: AtAAE7: acyl activating enzyme 7 from Arabidopsis thaliana (Uniprot Q8VZF1), C-terminal peroxisomal targeting sequence removed, SEQ ID NO: 9 (protein, listed as Arabidopsis thaliana)
chain: MAATKWRDIDDLPKIPANYTALTPLWFLDRAAVVHPTRKSVIHGSREYTWRQTYDRCRRLASALADRSIGPGSTVAIIAPNIPAMYEAHFGVPMCGAVLNCVNIRLNAPTVAFLLSHSQSSVIMVDQEFFTLAEDSLRLMEEKAGSSFKRPLLIVIGDHTCAPESLNRALSKGAIEYEDFLATGDPNYPWQPPADEWQSIALGYTSGTTASPKGVVLHHRGAYIMALSNPLIWGMQDGAVYLWTLPMFHCNGWCFPWSLAVLSGTSICLRQVTAKEVYSMIAKYKVTHFCAAPVVLNAIVNAPKEDTILPLPHTVHVMTAGAAPPPSVLFSMNQKGFRVAHTYGLSETYGPSTVCAWKPEWDSLPPETQAKLNARQGVRYTGMEQLDVIDTQTGKPVPADGKTAGEIVFRGNMVMKGYLKNPEANKETFAGGWFHSGDIAVKHPDNYIEIKDRSKDVIISGGENISSVEVENVVYHHPAVLEASVVARPDERWQESPCAFVTLKSDYEKHDQNKLAQDIMKFCREKLPAYWVPKSVVFGPLPKTATGKIQKHILRTKAKEMGPVPR
On to B2, for which, in the data set on hexanoic acid, the Olivetol is 0.74 mg/L and the Olivetolic acid was found to be 1.60 mg/L. Moreover, in the data set with butyric acid, the Divarin is recorded as 7.18 mg/L and the Divarinic acid is on record as 5.63 mg/L. Further, in the data set on butyric acid (over CsAAE1), the “activity as butyryl-CoA synthetases for divarin and divarinic acid production” value is given as “several-fold activity improvements”.

Source of the values: patent US20250122539A1, “LARGE SCALE PRODUCTION OF DIVARIN, DIVARINIC ACID AND OTHER ALKYL RESORCINOLS BY FERMENTATION” (priority 2021, published 2025).
